Source: PubChem BioAssay (NCI)
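1) Cells in 96-well plates. 2) Compound, 48 h, 5 concentrations. 3) Linear interpolation between surrounding doses. 4) Unreached endpoint = highest concentration. Definition used: TGI = concentration required for complete inhibition of growth.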

Tests used:
Test in all cases: growth of human tumour cells (NCI), 48 h
786-0 renal = system: 786-0 renal
A498 renal = system: A498 renal
A549 NSCLC = system: A549 NSCLC
ACHN renal = system: ACHN renal
BT-549 breast = system: BT-549 breast
CAKI-1 renal = system: CAKI-1 renal
CCRF-CEM leukemia = system: CCRF-CEM leukemia
COLO 205 colon = system: COLO 205 colon
DU-145 prostate = system: DU-145 prostate
EKVX NSCLC = system: EKVX NSCLC
HCT-116 colon = system: HCT-116 colon
HCT-15 colon = system: HCT-15 colon
HL-60(TB) leukemia = system: HL-60(TB) leukemia
HOP-92 NSCLC = system: HOP-92 NSCLC
HS 578T breast = system: HS 578T breast
HT29 colon = system: HT29 colon
IGROV1 ovarian = system: IGROV1 ovarian
K-562 leukemia = system: K-562 leukemia
KM12 colon = system: KM12 colon
LOX IMVI melanoma = system: LOX IMVI melanoma
M14 melanoma = system: M14 melanoma
MALME-3M melanoma = system: MALME-3M melanoma
MCF7 breast = system: MCF7 breast
MDA-MB-231 breast = system: MDA-MB-231 breast
MDA-MB-435 = system: MDA-MB-435
MDA-N = system: MDA-N
MOLT-4 leukemia = system: MOLT-4 leukemia
NCI-H226 lung = system: NCI-H226 lung
NCI-H23 lung = system: NCI-H23 lung
NCI-H522 lung = system: NCI-H522 lung
NCI/ADR-RES ovarian = system: NCI/ADR-RES ovarian
OVCAR-3 ovarian = system: OVCAR-3 ovarian
OVCAR-4 ovarian = system: OVCAR-4 ovarian
OVCAR-5 ovarian = system: OVCAR-5 ovarian
OVCAR-8 ovarian = system: OVCAR-8 ovarian
PC-3 prostate = system: PC-3 prostate
RPMI-8226 leukemia = system: RPMI-8226 leukemia
SF-268 CNS = system: SF-268 CNS
SF-539 CNS = system: SF-539 CNS
SK-MEL-2 melanoma = system: SK-MEL-2 melanoma
SK-MEL-28 melanoma = system: SK-MEL-28 melanoma
SK-MEL-5 melanoma = system: SK-MEL-5 melanoma
SK-OV-3 ovarian = system: SK-OV-3 ovarian
SNB-19 CNS = system: SNB-19 CNS
SNB-75 CNS = system: SNB-75 CNS
SR leukemia = system: SR leukemia
SW-620 colon = system: SW-620 colon
TK-10 renal = system: TK-10 renal
U251 CNS = system: U251 CNS
UACC-257 melanoma = system: UACC-257 melanoma
UACC-62 melanoma = system: UACC-62 melanoma
UO-31 renal = system: UO-31 renal
HOP-62 NSCLC = system: HOP-62 NSCLC
NCI-H460 lung = system: NCI-H460 lung
RXF 393 renal = system: RXF 393 renal
SF-295 CNS = system: SF-295 CNS
SN12C renal = system: SN12C renal
T-47D breast = system: T-47D breast

With `CC(=O)/C=c1\[nH]/c(=C\C=C\c2ccccc2)c(=O)n1/C=C1\C(=O)Oc2ccccc2C1=O` the TGI (786-0 renal) was over 100 µM, the TGI (A498 renal) was over 100 µM and the TGI (A549 NSCLC) was over 100 µM. It also gave a TGI (ACHN renal) of over 100 µM, a TGI (BT-549 breast) of over 100 µM and a TGI (CAKI-1 renal) of over 100 µM. For the same compound, the TGI (CCRF-CEM leukemia) was over 100 µM, the TGI (COLO 205 colon) was over 100 µM and the TGI (DU-145 prostate) was over 100 µM. It also gave a TGI (EKVX NSCLC) of over 100 µM, a TGI (HCT-116 colon) of over 100 µM and a TGI (HCT-15 colon) of over 100 µM. The TGI (HL-60(TB) leukemia) was over 100 µM, the TGI (HOP-92 NSCLC) was over 100 µM and the TGI (HS 578T breast) was over 100 µM. The TGI (HT29 colon) was over 100 µM, the TGI (IGROV1 ovarian) was over 100 µM and the TGI (K-562 leukemia) was over 100 µM. It also gave a TGI (KM12 colon) of over 100 µM, a TGI (LOX IMVI melanoma) of over 100 µM and a TGI (M14 melanoma) of over 100 µM. It also gave a TGI (MALME-3M melanoma) of over 100 µM, a TGI (MCF7 breast) of over 100 µM and a TGI (MDA-MB-231 breast) of over 100 µM. The TGI (MDA-MB-435) was over 100 µM, the TGI (MDA-N) was over 100 µM and the TGI (MOLT-4 leukemia) was over 100 µM. It also gave a TGI (NCI-H226 lung) of over 100 µM, a TGI (NCI-H23 lung) of over 100 µM and a TGI (NCI-H522 lung) of over 100 µM. The TGI (NCI/ADR-RES ovarian) was over 100 µM, the TGI (OVCAR-3 ovarian) was over 100 µM and the TGI (OVCAR-4 ovarian) was over 100 µM. The TGI (OVCAR-5 ovarian) was over 100 µM, the TGI (OVCAR-8 ovarian) was over 100 µM and the TGI (PC-3 prostate) was over 100 µM. The TGI (RPMI-8226 leukemia) was over 100 µM, the TGI (SF-268 CNS) was over 100 µM and the TGI (SF-539 CNS) was over 100 µM. The TGI (SK-MEL-2 melanoma) was over 100 µM, the TGI (SK-MEL-28 melanoma) was over 100 µM and the TGI (SK-MEL-5 melanoma) was over 100 µM. For the same compound, the TGI (SK-OV-3 ovarian) was over 100 µM, the TGI (SNB-19 CNS) was over 100 µM and the TGI (SNB-75 CNS) was over 100 µM. The TGI (SR leukemia) was over 100 µM, the TGI (SW-620 colon) was over 100 µM and the TGI (TK-10 renal) was over 100 µM. The TGI (U251 CNS) was over 100 µM, the TGI (UACC-257 melanoma) was over 100 µM and the TGI (UACC-62 melanoma) was over 100 µM. For the same compound, the TGI (UO-31 renal) was over 100 µM.

Work on `CN(C)c1ccc(/C=C2\C[C@H]3[C@@H]4CC=C5C[C@@H](O)CC[C@]5(C)[C@H]4CC[C@]3(C)C2=O)cc1` yielded a TGI (786-0 renal) of 41 µM, a TGI (A498 renal) of 38.2 µM and a TGI (A549 NSCLC) of 44.4 µM. The TGI (ACHN renal) was 34.8 µM, the TGI (BT-549 breast) was over 100 µM and the TGI (COLO 205 colon) was over 100 µM. The TGI (DU-145 prostate) was over 100 µM, the TGI (EKVX NSCLC) was 93.7 µM and the TGI (HCT-116 colon) was over 100 µM. For the same compound, the TGI (HCT-15 colon) was over 100 µM, the TGI (HL-60(TB) leukemia) was over 100 µM and the TGI (HOP-62 NSCLC) was 38.3 µM. For the same compound, the TGI (HT29 colon) was 56.2 µM, the TGI (IGROV1 ovarian) was 35.8 µM and the TGI (K-562 leukemia) was over 100 µM. For the same compound, the TGI (KM12 colon) was over 100 µM, the TGI (LOX IMVI melanoma) was 29 µM and the TGI (M14 melanoma) was 46 µM. For the same compound, the TGI (MALME-3M melanoma) was 39.6 µM, the TGI (MCF7 breast) was over 100 µM and the TGI (MDA-MB-231 breast) was 36 µM. For the same compound, the TGI (MDA-N) was over 100 µM, the TGI (MOLT-4 leukemia) was over 100 µM and the TGI (NCI-H226 lung) was 42.3 µM. It also gave a TGI (NCI-H23 lung) of 81.2 µM, a TGI (NCI-H460 lung) of 33.7 µM and a TGI (NCI/ADR-RES ovarian) of 66.8 µM. It also gave a TGI (OVCAR-3 ovarian) of 66.8 µM, a TGI (OVCAR-4 ovarian) of 48.2 µM and a TGI (OVCAR-5 ovarian) of 46.4 µM. The TGI (OVCAR-8 ovarian) was 19.1 µM, the TGI (PC-3 prostate) was 29.3 µM and the TGI (RPMI-8226 leukemia) was over 100 µM. The TGI (RXF 393 renal) was 43.9 µM, the TGI (SF-268 CNS) was 27.7 µM and the TGI (SF-295 CNS) was 75.8 µM. For the same compound, the TGI (SF-539 CNS) was 27.9 µM, the TGI (SK-MEL-2 melanoma) was 41.4 µM and the TGI (SK-MEL-28 melanoma) was 40 µM. It also gave a TGI (SK-MEL-5 melanoma) of over 100 µM, a TGI (SK-OV-3 ovarian) of 63.7 µM and a TGI (SN12C renal) of 54.9 µM. The TGI (SNB-19 CNS) was 39.3 µM, the TGI (SNB-75 CNS) was 57 µM and the TGI (SR leukemia) was over 100 µM. For the same compound, the TGI (SW-620 colon) was over 100 µM, the TGI (T-47D breast) was 62.8 µM and the TGI (TK-10 renal) was 39.3 µM. It also gave a TGI (U251 CNS) of 25.9 µM, a TGI (UACC-257 melanoma) of 40.2 µM and a TGI (UACC-62 melanoma) of 32.6 µM. The TGI (UO-31 renal) was 18.9 µM.
